Source: patent US7632825B2, “Methods of decreasing or preventing pain using spicamycin derivatives” (Bayer Pharmaceuticals Corporation, priority 2000, dated 2009)

Experiments:
[1] = compared with KRN5500; cited from earlier work
[2] = tested on: primary afferent-evoked excitatory postsynaptic currents (EPSCs) from lamina II; assay: Electrophysiological recording of primary afferent-evoked EPSCs in lumbar spinal cord slices from spared-nerve injury animals; assay type: cell-based
Description: Electrophysiological recordings were done on 650 μm thick transverse slices of lumbar spinal cord (from spared-nerve injury animals) with attached L4 dorsal root that were perfused with ice cold Krebs' solution ([in mM]: NaCl 117, KCl 3.6, CaCl2 2.5, MgCl2 1.2, NaH2PO4 1.2, NaHCO3 25 and glucose 11) saturated with 95% O2 and 5% CO2. To record primary afferent-evoked excitatory postsynaptic currents (EPSCs) from lamina II, whole cells were patch-clamped and then voltage-clamped at −70 mV. Orthodromicstimulation of L4 dorsal root was performed with a suction electrode attached to a constant current stimulator and graded intensity stimulation sufficient to recruit different afferent populations (Aβ, Aδ, and C-fibers) was used. Resistance of patch pipettes were 5-10 MW when filled with (in mM): Cs2SO4 110, CaCl2 0.5, MgCl2 2, EGTA 5, HEPES 5, TEA 5, ATP-Mg salt 5. Currents were amplified (Axopatch 200A), filtered at 2 kHz, digitized at 5 kHz and analyzed using pCLAMP 6 (Axon Instruments). SAN-Gly was dissolved in ice cold KREBs and bath-applied at two concentrations ([…]). […] In addition, as expected, the same concentration of SAN had no effect.

Male Sprague-Dawley rats = assay: Mechanical allodynia (von Frey filaments) in rat segmental spinal nerve injury and chronic constriction nerve injury models, results combined; assay type: in vivo; details: single injection
Protocol: Male Sprague-Dawley rats (Charles River Laboratories) weighing 150-200 g were used to evaluate the analgesic properties of the SAN-Gly formulation. The animals were housed in groups of three in plastic cages with soft bedding and under a 12 hour light/dark cycle. Food and water were available ad libitum. After one week of acclimatization to the laboratory conditions, all animals were tested to establish a baseline mechanical allodynia.
Since different animal models of pain can provide different experimental results, SAN-Gly was tested using two rat models. All experiments were performed in a single-blinded fashion, i.e., the experimenter was not aware of which rats received the control saline and which rats received the SAN-Gly formulation.
One rat model used was based on an experimentally produced segmental spinal nerve injury (Kim et al., Pain 50:355-363, 1992). One week after the acclimatization to laboratory conditions, baseline measurements were recorded and surgery was performed as described in Kim et al., supra. Rats were anesthetized with halothane in oxygen and placed in a prone position. A midline skin incision at L4-S2 was made, and paraspinal muscles were separated from the spinous processes in the L4-S2 region. […]
The rats were allowed to recover from surgery for at least a week. […] Both groups were then monitored for allodynia at various time points after surgery. […]

[3] = 100 mM bath-applied, whole-cell patch clamp at -70 mV, observed in three out of five cells

## NCC(=O)N[C@@H]1[C@@H](O)[C@@H](O)[C@@H](Nc2ncnc3[nH]cnc23)O[C@H]1[C@@H](O)CO [SAN-Gly, 4′-N-glycyl spicamycin amino nucleoside]
[1]
  cytotoxicity relative to water-insoluble spicamycin derivatives such as KRN5500: less cytotoxic
[2]; [3]
  amplitude of EPSCs: reduced the amplitude
  latency of EPSCs: increased the latency
[2]; after 100 mM bath application
  effect on EPSCs upon washout of the drug: reversed upon washout
Male Sprague-Dawley rats; 100 mg/kg body weight, single bolus in the tail vein, both animal models combined (FIG. 1)
  recovery towards baseline pain behavior: 60%
Male Sprague-Dawley rats; 100 mg/kg, tail vein, days after surgery as printed, both models combined
  persistence of increased pain tolerance: at least 7 days
